# Laboratory results: patent US11999964B2, “Synthetic mammalian signaling circuits for robust cell population control” (California Institute of Technology, priority 2020, dated 2024)
# Columns and labels:
# Format in all cases: cell-based, Hamster
# mCherry-AID-Blast R [1] = molecular target: T1, mCherry-AID-Blast R (UniProt P93830+Q7XVM8, DEL133-229); test: Auxin regulation of mCherry-AID-BlastR fluorescence in Receiver cells; conditions: Receiver CHO-K1 cells, two days of treatment, Michaelis-Menten fit; read-out: EC50, reduction of mCherry fluorescence
# T1 construct: expressed in transfected cells; 'Receiver' line
# Source text: (§1) FIGS. 1A-1D depict non-limiting exemplary embodiments and data showing the plant hormone auxin allows private-channel mammalian cell-cell communication. […] Middle: Engineered cells that can send and receive the signal simultaneously can respond to their own population size. Right: coupling the sending-receiving function with cell survival in a negative feedback can enable population control. (FIG. 1B) Auxin Receiver cells constitutively express a fluorescent target fusion protein, mCherry-AID-BlastR, as well as the F-box protein osTIR1. […] The response of mCherry fluorescence to two different species of auxin (IAA and NAA) was measured after two days of treatment (dots). […] Cells were counted by flow cytometry (n=3, error bar=standard deviation). […]
# To establish and characterize auxin regulation of mammalian cell growth, auxin sensing was coupled to drug resistance and fluorescence. Specifically, blasticidin S deaminase (Blast R), whose protein product is necessary for survival in the presence of blasticidin, was fused to AID and mCherry domains, allowing auxin-dependent degradation and fluorescent readout of protein concentration, respectively. […]
# To fit the mCherry's response curve to auxin and population (FIG. 1C, FIGS. 3A and 3B; FIGS. 7A and 7B), it was assumed the log of fluorescence (F) follows an inverted Michaelis-Menten's equation as follow: […]
# Paradaux cells = test: Paradaux cell survival versus auxin with AP1903 and/or blasticidin, and model parameter fitting
# Source text: FIGS. 4A-4G depict non-limiting exemplary embodiments and data showing paradoxical architecture reduces susceptibility to cheater mutations. (FIG. 4A) In the paradoxical architecture, the same signal inhibits growth (red pathway) and death (green pathway). This can produce a window of auxin concentrations leading to positive net growth (light blue region). Without mutation, the paradoxical and negative feedback circuits operate similarly around a stable equilibrium point of large population size (solid dots in the left panels). Mutations that eliminate sensing make both death and growth independent of auxin concentration (right panels), which selects against mutations in the paradoxical circuit due to negative net growth (FIG. 4B) In the paradoxical circuit implementation, auxin regulates growth through Blast^R (upper path), and also regulates apoptosis via iCasp9 (lower path), each with distinct fluorescent protein readouts and a small molecule (blasticidin and AP1903) as a control switch. (FIG. 4C) The full paradoxical circuit can be encoded as a single open reading frame, with distinct proteins separated by T2A peptides (grey squares). (FIG. 4D) Paradaux cells respond to auxin in a biphasic manner. Cells were seeded at about 1/8 confluence (grey dashed line) and pretreated with NAA for one day, then treated with combinations of NAA, blasticidin (20 μg/ml) and AP1903 (50 nM) for another 3 days, and imaged. Pink, green, and blue dots show the mean and standard deviation of three replicates in the presence of AP1903, blasticidin, or both, respectively. […] Blue dashed lines indicate predictions for the fully operational circuit based on the green and red curves. Dotted blue line is the model prediction when the synergy term is included. (FIG. 4E) Different classes of behavior can occur in different parameter regimes. Using the model auxin-dependent growth was simulated in different parameter regimes and identified five distinct regimes (indicated schematically as insets). Using this classification, growth curves were numerically analyzed and sorted for each concentration of blasticidin and AP1903 (central plot). The blue dot indicates the blasticidin and AP1903 concentrations used in the time-lapse movie analysis. The grey region indicates curves that could not be classified into one of these categories (0.68% of total, see FIG. 9F and Supplementary text). (FIG. 4F). For each expression level, the percent of blasticidin-AP1903 concentrations that generate paradoxical behavior was analyzed, similar to FIG. 4E. Optimizing the expression and ratio of Blast R and iCasp9 can widen the paradoxical regime. (FIG. 4G) Dynamic simulations show the Paradoxical Control circuit provides evolutionary robustness. For the negative feedback system, tic and βC and βsyn are set to zero. Mutated strains were simulated with auxin (A) fixed to zero, representing sensing deficient mutations. On day 25, 50, 75 and 100, mutant cells (1% of the population cap) were introduced into the simulated system to test robustness to mutations. These mutants take over in the negative feedback circuit (top) but not the paradoxical circuit (bottom). Dashed line indicates carrying capacity.
# To encode the Paradaux circuit, a single multi-protein construct expressing osTIR1, the auxin-regulated iCasp9 system, and the auxin-regulated Blast R construct described above was designed (FIG. 4C). To eliminate one potential mechanism for evolutionary escape, Blast^R was positioned at the C-terminal end of the construct, so that premature stop codon mutations would deactivate Blast®, decreasing survival. The construct was integrated to create stable monoclonal CHO-K1 cell lines for further analysis. […]
# Sender-Receiver cells = test: Quorum sensing of Sender-Receiver cells (reporter fluorescence versus population density); conditions: Sender-Receiver cells without PIN2, two days
# Description: FIGS. 3A-3D depict non-limiting exemplary embodiments and data showing Sender-Receiver cells sense their population density and regulate survival accordingly. (FIGS. 3A-3B) Sender-Receiver and Sender-Receiver-PIN2 cells perform quorum sensing. For both plots, cells were seeded at different densities and induction conditions, with either of the two auxins (saturating signaling) or their precursors (to allow quorum sensing). mCherry fluorescence was assayed after two days as a reporter of auxin sensing. Inset: Cells in B express the transporter PIN2, which actively exports auxin. Data were fitted onto an inverted Michaelis-Menten's function on log scale (see FIG. 7B for fitted parameters). (FIG. 3C) Sender-Receiver-PIN2 cells sense population size per unit volume. Cells were grown for two days at 6 different densities for each media volume, and cultured on a rocker for better mixing. (FIG. 3D) Sender-Receiver-PIN2 triggers cell death at high population density. […]
# It was next asked whether Sender-Receiver cells could sense their own population density by producing auxin at a rate proportional to population size and sensing auxin concentration in the local environment (quorum sensing, FIG. 1A, middle panel). The dependence of reporter expression on cell population density in the presence of concentrations of each precursor sufficient to generate saturating levels of auxin was analyzed. […]
# Sender-Receiver-PIN2 = test: Density-dependent survival of Sender-Receiver-PIN2 cells in blasticidin; conditions: media with blasticidin, 4 days
# Description: FIGS. 3A-3D depict non-limiting exemplary embodiments and data showing Sender-Receiver cells sense their population density and regulate survival accordingly. (FIGS. 3A-3B) Sender-Receiver and Sender-Receiver-PIN2 cells perform quorum sensing. For both plots, cells were seeded at different densities and induction conditions, with either of the two auxins (saturating signaling) or their precursors (to allow quorum sensing). mCherry fluorescence was assayed after two days as a reporter of auxin sensing. Inset: Cells in B express the transporter PIN2, which actively exports auxin. Data were fitted onto an inverted Michaelis-Menten's function on log scale (see FIG. 7B for fitted parameters). (FIG. 3C) Sender-Receiver-PIN2 cells sense population size per unit volume. Cells were grown for two days at 6 different densities for each media volume, and cultured on a rocker for better mixing. (FIG. 3D) Sender-Receiver-PIN2 triggers cell death at high population density. Cells were seeded at different confluence levels, grown for four days in media with 50 μg/ml blasticidin and IAM, IAA, or no auxin (Error bars are standard deviation, n=3)).
# Linking quorum sensing to cell survival could enable cell population control (FIG. 1A, right). […]
# mCherry-AID-Blast R [2] = molecular target: T1, mCherry-AID-Blast R; test: Conditioned media from Sender-Receivers applied to Receivers; conditions: 2 days conditioning, diluted into an equal volume of fresh media
# Description: FIGS. 2A-2E depict non-limiting exemplary embodiments and data showing Sender-Receiver cells produce and respond to auxin. […] (FIG. 2B) Stable expression of iaaH in Receiver cells allows them to produce auxin from precursors (blue square). (FIG. 2C) Conditioned media experiment (schematic). Fresh culture media with or without precursors was added to plated sender cells, collected, mixed at 1:1 ratio with standard fresh media, and then applied to receiver cells. (FIG. 2D) iaaH can produce IAA and NAA auxins from IAM and NAM precursors, respectively. Standard media, with or without precursors, was conditioned by Sender-Receivers or standard CHO-K1 cells for 48 hours and applied to Receiver cells for another two days. Receivers cultured with fresh media with or without auxins were also assayed as controls. Data are normalized to Receiver cell fluorescence treated with media conditioned by CHO-K1 cells. Error bars represent standard deviation of 3 replicates. (FIG. 2E) Auxin senders can generate an auxin gradient. Sender-Receivers (green) were seeded within a 7 mm×7 mm square at the edge of a 60 mm dish, and Receivers were plated everywhere else (no fluorescence or red). One day after plating, the media was replaced with fresh media containing low-melting-point agarose, with or without IAM (Methods). Plates were imaged after two additional days of culture. […]
# [3] = system: Receiver cell line (CHO-K1 cells); test: Receiver cell survival with IAA and blasticidin; conditions: IAA added to media containing blasticidin; four days; dose-dependent
# Source text: as §1
# Flow cytometry by trypsinizing 0.25% trypsin-EDTA (GIBCO) for 1 min at room temperature. […] Cells were then filtered through a 40 μm cell strainer and analyzed by flow cytometry (MACSQuant VYB, Miltenyi or CytoFLEX, Beckman Coulter). […] All fluorescence data were acquired as the median value of the gated population. For counting cells, 1000 CountBright beads (Life Technologies) were spiked into the sample before filtering, gated out by their fluorescence in analysis and used to estimate cell number in each sample.
# parental cells = test: Parental cells cultured with IAA and blasticidin (pilot); conditions: cultured in the presence of IAA and blasticidin
# Description: FIGS. 14A-14D depict non-limiting exemplary data showing simple negative feedback enables cell density-dependent killing. (FIGS. 14A-14B) Long-term culture traces under 50 μg/ml and 100 μg/ml blasticidin conditions. Experimental setups are the same as FIG. 11B. […] A cell line collected from the experiment described in (FIG. 14D) was cultured, in parallel with the parental line, with different IAA and blasticidin combinations for 4 days. Survival rates were normalized to the parental line, and each bar is from a triplet. […] Cells were seeded into a 24-well imaging plate with 50 μg/ml of blasticidin solely or with 100 μM IAA or IAM, and no cells survived the combined IAA and blasticidin treatment. Each trace reflects an average of 12 positions in a sample well.
# First, resistance mutations occurred in separately maintained, long-term cultures, and therefore could not spread from one culture to another. […] While sensing mutations are likely responsible at least in part for the mutant growth advantage, their specific effects in a parental background was not characterized. […] However, as described herein, a paradoxical circuit designs provide robust population control.
# [4] = fitted value, major Paradaux line (1)
# [5] = fitted value, second Paradaux line (2)
# T1 sequence (P93830 65-132 limits assumed, stated change not applied): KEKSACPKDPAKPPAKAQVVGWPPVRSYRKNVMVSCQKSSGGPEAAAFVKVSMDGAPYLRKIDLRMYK
# T1 sequence (Q7XVM8 whole entry, stated change not applied): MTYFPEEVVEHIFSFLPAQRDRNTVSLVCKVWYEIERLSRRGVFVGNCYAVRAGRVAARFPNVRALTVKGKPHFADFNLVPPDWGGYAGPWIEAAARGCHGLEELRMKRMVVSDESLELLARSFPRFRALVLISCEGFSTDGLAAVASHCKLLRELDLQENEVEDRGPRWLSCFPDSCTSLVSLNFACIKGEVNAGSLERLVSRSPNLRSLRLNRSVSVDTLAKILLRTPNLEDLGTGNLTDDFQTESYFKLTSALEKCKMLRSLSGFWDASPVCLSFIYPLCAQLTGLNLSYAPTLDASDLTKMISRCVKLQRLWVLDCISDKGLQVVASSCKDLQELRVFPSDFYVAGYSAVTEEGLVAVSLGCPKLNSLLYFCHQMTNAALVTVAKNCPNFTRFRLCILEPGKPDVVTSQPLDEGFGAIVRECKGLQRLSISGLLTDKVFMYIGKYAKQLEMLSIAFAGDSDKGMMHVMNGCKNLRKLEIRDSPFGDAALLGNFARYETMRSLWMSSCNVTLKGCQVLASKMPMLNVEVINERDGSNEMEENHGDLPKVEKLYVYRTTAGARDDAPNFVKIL
# T1 sequence (Q9WTX5 whole entry partner): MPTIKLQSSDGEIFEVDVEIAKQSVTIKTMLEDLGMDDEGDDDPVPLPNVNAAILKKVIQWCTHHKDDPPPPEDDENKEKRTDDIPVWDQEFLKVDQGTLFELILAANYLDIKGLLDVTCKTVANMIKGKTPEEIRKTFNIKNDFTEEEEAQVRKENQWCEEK
compound,measurement,setting,value
"O=C(O)Cc1cccc2ccccc12 [NAA, 1-napthalenatic acid]",EC50,mCherry-AID-Blast R [1],760 nM
auxin,Survival of Paradaux cells as a function of auxin,Paradaux cells; both blasticidin and AP1903,biphasic survival curve
same,"κA, effective strength of auxin",Paradaux cells; fitted value,1.316 µM⁻¹
same,Survival of Paradaux cells as a function of auxin,Paradaux cells; in the presence of AP1903,increased monotonically
same,Survival of Paradaux cells as a function of auxin,Paradaux cells; in the presence of blasticidin,decreased
"NC(=O)Cc1c[nH]c2ccccc12 [IAM, indole-3-acetamide]",Reporter fluorescence versus population density with precursor,Sender-Receiver cells,"strong, but density-independent, decrease in fluorescence"
same,Cell numbers at high seeding density versus no IAM or IAA,Sender-Receiver-PIN2,reduced cell numbers
same,Reduction of mCherry-AID-BlastR in Receivers by media conditioned by Sender-Receivers with precursor,mCherry-AID-Blast R [2],comparable to those generated by saturating concentrations of IAA
"NC(=O)Cc1cccc2ccccc12 [NAM, 1-naphthaleneacetamide]",Reporter fluorescence versus population density with precursor,Sender-Receiver cells,decreased in response to increasing population density
same,Reduction of mCherry-AID-BlastR in Receivers by media conditioned by Sender-Receivers with precursor,mCherry-AID-Blast R [2],diminished response compared to NAA
CN(CC[C@H](N)CC(=O)N[C@H]1C=C[C@H](n2ccc(N)nc2=O)O[C@@H]1C(=O)O)C(=N)N [blasticidin],"n1, cooperativity of the blasticidin regulation",Paradaux cells; [4],2.26(1); DL
same,"βB, maximum net growth reduction by blasticidin",Paradaux cells; [4],0.0874(1); hr^−1
same,"κB, effective strength of blasticidin",Paradaux cells; [4],0.045(1); (μg/ml)^−1
same,"n1, cooperativity of the blasticidin regulation",Paradaux cells; [5],2.28(2) DL
same,"βB, maximum net growth reduction by blasticidin",Paradaux cells; [5],0.147(2) hr^−1
same,"κB, effective strength of blasticidin",Paradaux cells; [5],0.069(2) (μg/ml)^−1
"O=C(O)Cc1c[nH]c2ccccc12 [IAA, indole-3-acetic acid]",Effect on cell survival,[3],inhibit cell survival
same,Time to death of parental cells,parental cells,≤ 3 days
same,EC50,mCherry-AID-Blast R [1],110 nM
